Test results as given in the supplement of paper PMC11061612.

How the values were obtained:
Experiment in all cases: Bliss excess, mean over the matrix (fraction); higher = more synergy
[1] = test system: RMG-I (Ovarian Carcinoma)
Summary of the method: (§1)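 After 24 hours at 37°C and 5% CO2 in 1536-well plates, cells in DMEM/F12 or RPMI plus 10% FBS received two-drug dose matrices for 72 hours. Viability came from CellTiter-Glo 2.0 luminescence and was scaled as inhibition, anchored at 0 by vehicle wells and at 1 by blank wells. Combination Emax is taken as the second-highest inhibition in the matrix, and Bliss excess as the observed combination effect less EA + EB − EA·EB, with EA and EB the single-agent effects.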

[2] = test system: SW684 (Other Solid Carcinomas)
Summary of the method: as §1

[3] = test system: OCI-AML5 (Acute Myeloid Leukemia)
Summary of the method: as §1

[4] = test system: RL95-2 (Endometrial Carcinoma)
Summary of the method: as §1

CHL-1 (Melanoma) = test system: CHL-1 (Melanoma)
Summary of the method: as §1

[5] = test system: PANC-02-03 (Pancreatic Carcinoma)
Summary of the method: as §1

[6] = test system: NCI-H1623 (Lung Adenocarcinoma)
Summary of the method: as §1

[7] = test system: NKM-1 (Acute Myeloid Leukemia)
Summary of the method: as §1

[8] = test system: LAMA-84 (Chronic Myelogenous Leukemia)
Summary of the method: as §1

[9] = test system: SK-MM-2 (Plasma Cell Myeloma)
Summary of the method: as §1

[10] = test system: FLO-1 (Esophageal Adenocarcinoma)
Summary of the method: as §1

[11] = test system: NCI-H196 (Small Cell Lung Carcinoma)
Summary of the method: as §1

[12] = test system: NCI-H1563 (Lung Adenocarcinoma)
Summary of the method: as §1

HuO-3N1 (Osteosarcoma) = test system: HuO-3N1 (Osteosarcoma)
Summary of the method: as §1

[13] = test system: JHH-1 (Hepatocellular Carcinoma)
Summary of the method: as §1

[14] = test system: Calu-6 (Non-Small Cell Lung Carcinoma)
Summary of the method: as §1

786-0 (Kidney Carcinoma) = test system: 786-0 (Kidney Carcinoma)
Summary of the method: as §1

[15] = test system: CML-T1 (Chronic Myelogenous Leukemia)
Summary of the method: as §1

[16] = test system: LOUCY (T-Lymphoblastic Leukemia)
Summary of the method: as §1

[17] = test system: Caov-3 (Ovarian Carcinoma)
Summary of the method: as §1

SMILES	Bliss excess [1]	Bliss excess [2]	Bliss excess [3]	Bliss excess [4]	Bliss excess (CHL-1 (Melanoma))	Bliss excess [5]	Bliss excess [6]	Bliss excess [7]	Bliss excess [8]	Bliss excess [9]	Bliss excess [10]	Bliss excess [11]	Bliss excess [12]	Bliss excess (HuO-3N1 (Osteosarcoma))	Bliss excess [13]	Bliss excess [14]	Bliss excess (786-0 (Kidney Carcinoma))	Bliss excess [15]	Bliss excess [16]	Bliss excess [17]
NC1(C(=O)N[C@@H](CCO)c2ccc(Cl)cc2)CCN(c2ncnc3[nH]ccc23)CC1 [Capivasertib] + CC(C)n1c(=O)n(C)c2cnc3cc(F)c(-c4ccc(OCCCN5CCCCC5)nc4)cc3c21 [AZD1390] (first compound max 10 µM, 7x7, partner max 0.3 µM)	-0.062	-0.0057	-0.0369	-0.0709	-0.0209	-0.013	-0.024	-0.111	-0.0119	-0.115	-0.0398	-0.0439	0.0016	-0.101	-0.0495	-0.0391	-0.0997	0.003	-0.0101	
CCc1c2c(nc3ccc(O)cc13)-c1cc3c(c(=O)n1C2)COC(=O)[C@]3(O)CC [SN-38] + O=C(c1cc(Cc2n[nH]c(=O)c3ccccc23)ccc1F)N1CCN(C(=O)C2CC2)CC1 [Olaparib] (first compound max 0.3 µM, 7x7, partner max 10 µM)	0.0057	-0.0048			0.0683	0.0609		0.0274	0.0833	-0.0056	0.0371			0.075	0.0041	0.0211	0.0937	-0.0065	0.0204	0.0886
C=CCn1c(=O)c2cnc(Nc3ccc(N4CCN(C)CC4)cc3)nc2n1-c1cccc(C(C)(C)O)n1 [AZD1775] + C1CN(CCC1(C(=O)N[C@@H](CCO)C2=CC=C(C=C2)Cl)N)C3=NC=NC4=C3C=CN4 [Capivasertib] (first compound max 3 µM, partner max 3 µM)	-0.0349	-0.0351	-0.0443	0.0093	0.0106	-0.018	-0.0576	-0.0746	0.0017	-0.0629	-0.0228	-0.118	-0.0318	-0.0033	-0.018	0.0034	-0.0169	-0.0178	0.0157	
NC1(C(=O)N[C@@H](CCO)c2ccc(Cl)cc2)CCN(c2ncnc3[nH]ccc23)CC1 [Capivasertib] + Cn1cnc2c(F)c(Nc3ccc(Br)cc3Cl)c(C(=O)NOCCO)cc21 [Selumetinib] (first compound max 10 µM, 7x7, partner max 10 µM)	0.0235	0.0495	0.0645	0.0367	0.0588	0.0589	0.0623	0.142	0.0548	-0.0293	0.0307	-0.0436	-0.119	-0.0321	-0.0896	0.0038	0.0614	0.0217	0.0806	
NC1(C(=O)N[C@@H](CCO)c2ccc(Cl)cc2)CCN(c2ncnc3[nH]ccc23)CC1 [Capivasertib] + CC(=O)c1c(C)c2cnc(Nc3ccc(N4CCNCC4)cn3)nc2n(C2CCCC2)c1=O [Palbociclib] (first compound max 10 µM, 7x7, partner max 10 µM)	-0.0098	0.0176	-0.0096	0.0215	-0.0082	-0.0351	-0.0156	-0.0204	0.0059	-0.0005	-0.0218	-0.0706	-0.0456	-0.105	-0.0687	0.0488	0.0245	0.0054	0.0824	
CN(C)CCCOc1ccc(-c2ccc3ncc4c(c3c2)n(C2CCOCC2)c(=O)n4C)cn1 [AZD0156] + O=C(c1cc(Cc2n[nH]c(=O)c3ccccc23)ccc1F)N1CCN(C(=O)C2CC2)CC1 [Olaparib] (first compound max 3 µM, partner max 3 µM)	-0.0428	-0.0388	0.0103	0.11	-0.0224	0.0278	0.0126	0.0587	0.167	-0.161	0.0512	-0.0505	-0.0158	-0.0328	0.0084	0.0096	0.0418	0.178	0.125	
Cc1nc(Nc2ncc(C(=O)Nc3c(C)cccc3Cl)s2)cc(N2CCN(CCO)CC2)n1 [Dasatinib] + CC(=O)Nc1cccc(-n2c(=O)n(C3CC3)c(=O)c3c(Nc4ccc(I)cc4F)n(C)c(=O)c(C)c32)c1 [Trametinib] (first compound max 2 µM, 7x7, partner max 1 µM)	-0.0276	0.0004	-0.0515	-0.186	0.0137	0.0762	-0.0775	-0.0196	0.0037	-0.0157	0.122	-0.0634	-0.111	-0.159	0.0492	0.179	-0.0592	-0.0296	0.0286	
Cn1cnc2c(F)c(Nc3ccc(Br)cc3Cl)c(C(=O)NOCCO)cc21 [Selumetinib] + C=CCn1c(=O)c2cnc(Nc3ccc(N4CCN(C)CC4)cc3)nc2n1-c1cccc(C(C)(C)O)n1 [AZD1775] (first compound max 10 µM, partner max 1 µM)	-0.0005	-0.106	0.036	0.0148	-0.0386	-0.0033	-0.0223	-0.0478	-0.0385	-0.0198	-0.0108	-0.0704	-0.0393	-0.0972	0.0171	-0.0133	-0.0543	-0.0607	-0.196	
COc1nnc2ccc(N3CCC(c4ccc(OCCN5CCN(C)C(=O)[C@H]5C)cc4)CC3)nn12 [AZD5153] + CC1(C)CCC(CN2CCN(c3ccc(C(=O)NS(=O)(=O)c4ccc(NCC5CCOCC5)c([N+](=O)[O-])c4)c(Oc4cnc5[nH]ccc5c4)c3)CC2)=C(c2ccc(Cl)cc2)C1 [Venetoclax] (first compound max 1 µM, 7x7, partner max 1 µM)	-0.0456	-0.0705	0.0114	-0.0558	-0.0297	-0.0263	-0.0448	-0.0195	-0.0361	-0.0111	-0.005	-0.0351	-0.0496	-0.0576	-0.0256	-0.0949	-0.0762	0.0479	0.0241	
Cn1cnc2c(F)c(Nc3ccc(Br)cc3Cl)c(C(=O)NOCCO)cc21 [Selumetinib] + C[C@@H]1COCCN1C2=NC(=NC(=C2)C3(CC3)[S@](=N)(=O)C)C4=C5C=CNC5=NC=C4 [AZD6738] (first compound max 10 µM, 7x7, partner max 10 µM)	0.0106	-0.071	0.0024	0.0152	-0.0498	0.04	0.0028	-0.0748	0.0012	-0.0604	-0.0137	-0.0607	-0.0297	-0.0994	0.0427	-0.032	-0.0735	-0.0631	-0.0446	
NC1(C(=O)N[C@@H](CCO)c2ccc(Cl)cc2)CCN(c2ncnc3[nH]ccc23)CC1 [Capivasertib] + CCN(CCO)CCCOc1ccc2c(Nc3cc(CC(=O)Nc4cccc(F)c4)[nH]n3)ncnc2c1 [AZD2811] (first compound max 10 µM, 7x7, partner max 1 µM)	-0.0214	-0.0532	-0.0465	-0.0051	-0.0092	-0.0261	0.0004	-0.0299	0.0341	-0.0412	-0.0049	-0.0276	0.0242	-0.0379	-0.0517	-0.0009	-0.0352	-0.0597	-0.104	
NC1(C(=O)N[C@@H](CCO)c2ccc(Cl)cc2)CCN(c2ncnc3[nH]ccc23)CC1 [Capivasertib] + COc1nnc2ccc(N3CCC(c4ccc(OCCN5CCN(C)C(=O)[C@H]5C)cc4)CC3)nn12 [AZD5153] (first compound max 10 µM, 7x7, partner max 1 µM)	-0.0448	0.004	0.0552	-0.002	0.0143	0.0132	0.0638	-0.0157	-0.0038	-0.107	0.0115	0.0227	-0.0218	0.0531	-0.0072	-0.0081	0.0014	-0.0125	0.0912	
Cn1cnc2c(F)c(Nc3ccc(Br)cc3Cl)c(C(=O)NOCCO)cc21 [Selumetinib] + CCN(CCO)CCCOc1ccc2c(Nc3cc(CC(=O)Nc4cccc(F)c4)[nH]n3)ncnc2c1 [AZD2811] (first compound max 10 µM, 7x7, partner max 1 µM)	-0.0385	-0.036	-0.0225	0.045	-0.0579	-0.0144	0.0134	-0.0376	0.0237	-0.0037	-0.0448	-0.057	0.0102	-0.106	-0.0327	-0.0026	-0.0344	0.0685	-0.0979	
NC1(C(=O)N[C@@H](CCO)c2ccc(Cl)cc2)CCN(c2ncnc3[nH]ccc23)CC1 [Capivasertib] + C[C@@H]1COCCN1C2=NC(=NC(=C2)C3(CC3)[S@](=N)(=O)C)C4=C5C=CNC5=NC=C4 [AZD6738] (first compound max 10 µM, 7x7, partner max 10 µM)	-0.0371	-0.0465	-0.017	-0.0803	-0.0329	-0.004	-0.0522	-0.0479	0.0117	-0.0164	-0.0933	-0.0265	-0.0357	-0.11	-0.0294	-0.0777	-0.0708	-0.0774	-0.0482	
COc1nnc2ccc(N3CCC(c4ccc(OCCN5CCN(C)C(=O)[C@H]5C)cc4)CC3)nn12 [AZD5153] + Cn1cnc2c(F)c(Nc3ccc(Br)cc3Cl)c(C(=O)NOCCO)cc21 [Selumetinib] (first compound max 1 µM, 7x7, partner max 10 µM)	-0.0486	-0.0187	0.0945	-0.0221	0.0049	0.0742	0.0294	0.0071	0.0757	-0.004	0.0012	-0.0296	-0.085	-0.0026	0.0139	0.0533	0.0143	-0.14	0.0484	
